This series deals with U-937 blood cancer cell line. The series is described as follows: MTT in vitro cytotoxicity assay. It counts as cell-based. The note with it: U-937, MTT assay. As to the method:
For cytotoxicity assays, the anti-cancer compounds were prepared as a stock solution, to suit a universal 96 well plate map, at different concentrations in μM, and dissolved in DMSO dH2O. Working solutions were prepared in the culture medium and added to the wells 24 hours after seeding of 5 to 7×10^3 cells per well in 200 μL of fresh culture medium. DMSO (1%)/dH2O was used as the solvent control. The DMSO concentration was maintained at a concentration less than 1% (i.e., a non-toxic concentration). Microscopic cytological changes were monitored and photographed following exposure to different concentrations of the compounds for 24 and 48 hours using an inverted microscope. After the respective periods of treatment, plates were centrifuged and washed with fresh growth medium. Then, 20 μL of MTT solution [5 mg/mL in phosphate-buffered saline (PBS)] was added to each well, and the plates were wrapped with aluminum foil and incubated overnight at 37° C. The plates were centrifuged and the supernatants were removed carefully […]. The purple formazan product was dissolved in 100 μL of 100% DMSO. The absorbance was monitored at 570 nm (measurement) and 630 nm (reference) using a 96 well plate reader. Data were collected for four replicates each and used to calculate the median effect dose or concentration; i.e., IC50. […]

The values that follow come from patent US9486444B1, “Anti-cancer compound” (KING SAUD UNIVERSITY, priority 2016, dated 2016).

Entries after “also recorded” stand apart in the source; their conditions may differ.

For the substance “5′-benzyl-4′-(p-tolyl)-5-(trifluoromethoxy)spiro[3,2′]oxindolopyrrolidino-4′-(methylphenyl)-1″-styryl-5-benzylidene-spiro[3′.3″]piperidi-4″-one [Compound 4i]”, the “cytotoxicity (in words)” value (24 and 48 hours) is “most cytotoxic compound; also recorded: excellent cytotoxicity effects at the lowest concentrations”. For the substance bleomycin [reference compound], where the note is “24 hour incubation time, read-out: IC50 = concentration of drug required to inhibit growth of 50% of the cancer cells”, the IC50 turned out to be 16.2 ± 4.5 µM.
